Measured values from patent US20070014721A1, “Hydrazide conjugates as imaging agents” (priority 2005, published 2007).
Where two headings read alike, the source gives them in different places. *1 amine or outer side, *2 acyl side, *3 side chain or, on linkers, in order; H or OH if unused. Where a SMILES comes first, the peptide text is derived from it. [ ]: non-standard residue; d: D form. The star is where a group is joined. PABC = O=C(OCc1ccc(N[*:1])cc1)[*:2]; X1 = CC(=O)NCCCCCC(=O)NN*; Boc = CC(C)(C)OC(=O)*; Nlys = NCCCCNCC(=O)O

Assays:
[1] = test system: Rabbit plaque aorta or normal rabbit aorta; test: Ex vivo blood vessel binding assay; design: species or system New Zealand white rabbits; conditions: radiolabeled compound incubated with rabbit aorta (0.5 cm) in phosphate buffered saline for 2 hours at 37° C; bound compound as percentage of the incubated compound
Text: Normal aorta was obtained from New Zealand white rabbits. Aorta bearing atherosclerotic plaque was obtained from New Zealand white rabbits balloon stripped along the abdominal aorta and placed on a high fat diet (0.5% cholesterol) for 16-22 weeks. Vascular injury was produced with a 3-F Fogarty catheter along the abdominal aorta and left iliofemoral artery. This procedure generates an accelerated complex lesion development with a lipid rich core covered by a fibrous cap in rabbits. Rabbit plaque aorta or normal rabbit aorta (0.5 cm) was incubated with 10 nCi of ^14C labeled compound or 1.5 μCi of ^99m Tc labeled compound or 0.135 μCi of ^111In labeled compound or 0.135 μCi of ^68Ga labeled compound or 0.135 µCi of ^153Gd labeled compound diluted in phosphate buffered saline (450 μL) for 2 hours at 37° C. The supernatant from this sample was collected and analyzed by HPLC to determine compound stability in presence of blood vessels. The blood vessel tissue was then washed with phosphate buffered saline (3×10 mL). Phosphate buffered saline (10 ml) was added to the tissue and incubated at 37° C. for 1 hour. The tissue was then washed with phosphate buffered saline (3×10 mL). The washed tissue was oxidized in a tissue oxidizer for C-14 labeled compounds. The counts in the oxidized tissue were determined on a beta counter. Blood vessels incubated with ^99m Tc labeled compound or ^111In labeled compound or ^68Ga labeled compound or ^153Gd labeled compound were counted on a gamma counter. The amount of compound bound to the tissue was determined as a percentage of the incubated compound. This was calculated using the following formula: [formula]

[2] = test system: aorta of apolipoprotein E (apoE) knockout mouse; conditions: in vivo
Method: (§1) Mice were fed a high-fat diet to accelerate plaque formation and compounds were tested in the mice between 37-41 weeks on diet. Test compounds were radiolabeled (^14C, ^99mTc, or ^111In as described above) and administered at 0.02-4.0 mCi/kg to anesthetized mice in a single, bolus injection via the tail vein. Blood samples were collected via the tail between 0-30 minutes postinjection for pharmacokinetic analysis and mice were euthanized by CO2 at 60 minutes for tissue harvesting. The aorta were flushed with saline through the left ventricle exiting via the femoral vein. The aorta were then removed from the heart to the renal bifurcation and additional tissue samples collected (blood, muscle, liver, kidney, heart, lung, spleen and innominate artery). All samples were weighed and assayed for radioactivity. Tissue uptake is expressed as percent of injected dose per gram of tissue (% ID/g). The aorta to blood ratios were calculated from the % ID/g data.

[3] = test system: aorta of atherosclerotic rabbit model; conditions: in vivo
Method: (§2) Atherosclerosis was induced in New Zealand White male rabbits (3 kg) with aortic balloon endothelial injury followed by feeding a 0.5% cholesterol diet for 22 weeks. Test compounds were radiolabeled(^14C, ^99mTc, or ^111In as described above) and administered at 0.02-1.0 mCi/kg to anesthetized rabbits in a single, bolus injection vis the marginal ear vein. Blood samples were collected from the central ear artery at 0, 2, 5, 7, 10, 15, 30, and 60 minutes post injection. Rabbits were euthanized at 60 minutes post injection for tissue harvesting (blood, muscle, bile, urine, kidney, liver, spleen, heart, lung, colon, small intestine, stomach, testes). Abdominal aorta (upper, middle, and lower) and left and right femoral arteries were collected. Both plaque bearing and non-plaque bearing rabbits were administered compounds to compare aorta uptake. All samples were weighed and assayed for radioactivity. Tissue uptake is expressed as percent of injected dose per gram of tissue (% ID/g). The aorta to blood ratios were calculated from the % ID/g data.

[4] = test system: aorta of apolipoprotein E (apoE) knockout mouse; test: In vivo ApoE mouse aorta uptake study; conditions: 60 min postinjection; for Aorta (% ID/g): ApoE mouse on high-fat diet 37-41 weeks, tail vein bolus; for Aorta/Blood Ratio: ApoE mouse, calculated from the % ID/g data
Method: as §1

[5] = test system: aorta of normal (non-plaque bearing) rabbit; test: In vivo rabbit aorta uptake study, normal rabbit; design: species or system New Zealand White male rabbits; conditions: 60 minutes postinjection; for Aorta/Blood (Normal Rabbit): calculated from the % ID/g data; for Aorta Uptake, % ID/g (Normal Rabbit): marginal ear vein bolus
Text: All samples were weighed and assayed for radioactivity.

[6] = test system: aorta of atherosclerotic rabbit model; test: In vivo rabbit aorta uptake study, atherosclerotic (plaque) rabbit; conditions: 60 minutes postinjection; for Aorta/Blood (Plaque Rabbit): calculated from the % ID/g data; for Aorta Uptake, % ID/g (Plaque Rabbit): marginal ear vein bolus
Method: as §2

[7] = target: Aminopeptidase N (Homo sapiens, UniProt P15144); test: Aminopeptidase N cleavage of test substrates; assay type: biochemical; conditions: Boc removed from N-terminus before assay; 0.5 mM test substrate, 0.02 U APN, 37° C, 25 minutes
Chain of Aminopeptidase N (P15144 whole entry, species assumed): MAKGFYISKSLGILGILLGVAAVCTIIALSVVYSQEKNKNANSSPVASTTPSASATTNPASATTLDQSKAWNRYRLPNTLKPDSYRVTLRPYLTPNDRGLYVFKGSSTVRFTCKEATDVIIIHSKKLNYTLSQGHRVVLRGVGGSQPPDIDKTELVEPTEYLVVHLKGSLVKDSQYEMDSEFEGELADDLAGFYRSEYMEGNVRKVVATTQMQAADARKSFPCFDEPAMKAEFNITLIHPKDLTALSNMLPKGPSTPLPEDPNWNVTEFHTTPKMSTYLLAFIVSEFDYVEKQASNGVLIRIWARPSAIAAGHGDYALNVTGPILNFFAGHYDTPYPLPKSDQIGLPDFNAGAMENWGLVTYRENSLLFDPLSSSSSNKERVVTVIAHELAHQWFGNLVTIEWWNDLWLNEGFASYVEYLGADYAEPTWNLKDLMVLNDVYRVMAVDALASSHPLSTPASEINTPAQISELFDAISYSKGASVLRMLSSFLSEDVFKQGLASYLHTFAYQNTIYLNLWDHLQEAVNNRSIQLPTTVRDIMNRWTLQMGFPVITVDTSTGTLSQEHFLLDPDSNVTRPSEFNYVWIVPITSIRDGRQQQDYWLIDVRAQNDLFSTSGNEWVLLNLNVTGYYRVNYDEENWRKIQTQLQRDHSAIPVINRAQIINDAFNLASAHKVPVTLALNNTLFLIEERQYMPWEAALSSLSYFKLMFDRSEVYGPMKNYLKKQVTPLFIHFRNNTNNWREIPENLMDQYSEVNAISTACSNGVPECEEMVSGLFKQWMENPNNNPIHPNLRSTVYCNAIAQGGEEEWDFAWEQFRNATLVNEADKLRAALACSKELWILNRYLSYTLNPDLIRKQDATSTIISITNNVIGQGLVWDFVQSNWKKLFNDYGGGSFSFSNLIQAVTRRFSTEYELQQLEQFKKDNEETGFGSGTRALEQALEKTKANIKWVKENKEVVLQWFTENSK
Method: The test compounds were dissolved in 50:50 TFA:dichloromethane and allowed to stand at ambient temperature under nitrogen for 10 minutes to remove the Boc protecting group from the N-terminus amino acid. The solutions were concentrated and the resulting oily residue was dissolved in 50:50 acetonitrile:water and lyophilized. The resulting flocculent solids were used directly in the APN assay.
Aminopeptidase N cleaves amino acids at the N-terminus of proteins and peptides attached to another amino acid. A stock solution of test substrates was prepared in 100% DMSO at a concentration of 8 mM. The stock solution (4.7 μL) was added to buffer (50 mM Hepes/pH 7.5, 10 mM CaCl2, 0.1% Brij) for a final concentration of 0.5 mM test substrate in the reaction. To this reaction solution 0.02 U of the enzyme (APN) was added, the solution was mixed, and immediately 30 μL of the mix was transferred to HPLC vials containing acetic acid (15 μL) for t=0 minutes measurement. The rest of the mix in the test tube was incubated at 37° C. for 25 minutes. At the 25 minutes time point 30 μL of the mix was transferred to an HPLC vial containing acetic acid (15 μl) for the t=25 minute measurement. The test substrates and products were separated by reversed phase HPLC on a Zorbax SB-C18 column (4.6×150 mm, 5 micron) using a water:acetonitrile gradient containing 0.1% TFA at a flow rate of 1.0 mL/min and with UV detection. The peak areas were integrated and the substrate peak area was used to determine rate constant k in the following equation: K={(% hydrolyzed/100)*[S]}/[E]*[time] where S=test substrate concentration in μmoles
E=aminopeptidase N concentration in units/ml
K=μmoles of substrate hydrolyzed/minute/unit enzyme

Compound	Aorta/Blood Ratio [2]	Aorta/Blood (Plaque Rabbit) [3]	Aorta (% ID/g) [4]	Aorta/Blood Ratio [4]	Aorta/Blood (Normal Rabbit) [5]	Aorta Uptake, % ID/g (Normal Rabbit) [5]	Aorta/Blood (Plaque Rabbit) [6]	Aorta Uptake, % ID/g (Plaque Rabbit) [6]	Tissue Binding % [1]	Rate of APN Hydrolysis of Test Substrates [7]
H-d-Leu-Apph-DTPA [Example 171]	–	–	6.7 % ID/g	8.8	4.49	0.143 % ID/g	2.89	0.168 % ID/g	16.56%	–
H-d-Trp-Ambh-DTPA [Example 208]	–	–	14.8 % ID/g	8.7	5.58	0.135 % ID/g	–	–	14.91%	–
H-d-1-Nal-Ambh-DTPA [Example 183]	–	–	15.7 % ID/g	11.7	4.72	0.146 % ID/g	–	–	24.41%	–
H-d-Leu-Apah-Ahx-DTPA [Example 176]	–	–	12.2 % ID/g	13.3	4.95	0.123 % ID/g	–	–	25.21%	–
H-d-Leu-Apah-DTPA [Example 159]	–	–	9.5 % ID/g	3.0	–	–	4.08	0.083 % ID/g	10.10%	–
CC(C)C[C@H](NC(=O)OC(C)(C)C)C(=O)Nc1ccc(C[C@@H](NC(=O)OC(C)(C)C)C(=O)NNC(=O)CCCCCN)cc1.O=CO [Example 83, N-[(2R)-3-(4-{(2S)-2-[(tert-Butoxy)carbonylamino]-4-methylpentanoylamino}phenyl)-2-[(tert-butoxy)carbonylamino]propanoylamino]-6-aminohexanamide, Formic Acid Salt]	–	–	–	–	–	–	–	–	–	0.43 μmoles/minute/U
H-d-Cys(Bzl)-Apah-DTPA [Example 173]	–	–	9.5 % ID/g	5.8	–	–	–	–	13.82%	–
Boc-d-Aphe(ε-Leu(Boc))-Ahxh-H [Example 151]	–	–	9.0 % ID/g	2.9	–	–	–	–	26.92%	–
H-d-Phe-Apah-DTPA [Example 164]	–	–	8.2 % ID/g	7.5	–	–	3.56	0.085 % ID/g	13.88%	–
CC(C)C[C@H](NC(=O)OC(C)(C)C)C(=O)N[C@H](CC(C)C)C(=O)NNC(=O)CCCCCN.O=C(O)C(F)(F)F [Example 80, N-((2R)-2-{(2S)-2-[(tert-Butoxy)carbonylamino]-4-methylpentanoylamino}-4-methylpentanoylamino)-6-aminohexanamide, Trifluoroacetic Acid Salt]	–	–	–	–	–	–	–	–	–	0.00 μmoles/minute/U
H-d-Phe-XInph-DTPA [Example 202]	–	–	4.3 % ID/g	4.0	–	–	–	–	5.44%	–
CC(C)C[C@H](NC(=O)OC(C)(C)C)C(=O)Nc1ccc(COC(=O)N[C@H](CC(C)C)C(=O)NNC(=O)CCCCCN)cc1.O=C(O)C(F)(F)F [Example 13, N-((2R)-2-{[(4-{(2S)-2-[(tert-Butoxy)carbonylamino]-4-methylpentanoylamino}phenyl)methoxy]carbonylamino}-4-methylpentanoylamino)-6-aminohexanamide, Trifluoroacetic Acid Salt]	–	–	–	–	–	–	–	–	–	0.33 μmoles/minute/U

The next lines start with results.

Aorta/Blood Ratio [2]	Aorta/Blood (Plaque Rabbit) [3]	Aorta (% ID/g) [4]	Aorta/Blood Ratio [4]	Aorta/Blood (Normal Rabbit) [5]	Aorta Uptake, % ID/g (Normal Rabbit) [5]	Aorta/Blood (Plaque Rabbit) [6]	Aorta Uptake, % ID/g (Plaque Rabbit) [6]	Compound	Tissue Binding % [1]	Rate of APN Hydrolysis of Test Substrates [7]
2.3	1.93	–	–	–	–	–	–	CC(=O)NCCCCCC(=O)NNC(=O)[C@@H](CC(C)C)NC(=O)OCc1ccc(NC(=O)[C@H](CC(C)C)NC(=O)[C@H](CC(C)C)NC(=O)CN(CCCCNC(=O)OC(C)(C)C)C(=O)[C@H](CC(C)C)NC(=O)[C@@H]2CCCN2C(C)=O)cc1 [Example 128, Ac-PL-NLys(Boc)˜LL-PABA-CO-d-Leu-Ahxh-H] (Ac-PL[Nlys](Boc)LL[PABC][dL]-X1)	5.77%	–
–	–	8.7 % ID/g	11.0	5.42	0.111 % ID/g	–	–	H-d-Phe-Apph-DTPA [Example 174]	17.15%	–
8.8	9.05	–	–	–	–	–	–	Boc-d-Phe[p-(Ac-PL-NLys(Boc)˜Hphe-L-NH)]-Ahxh-H [Example 147]	44.73%	–
–	–	12.9 % ID/g	8.7	4.78	0.129 % ID/g	2.76	0.127 % ID/g	H-d-Hphe-Ambh-DTPA [Example 203]	17.96%	–
–	–	8.9 % ID/g	2.2	–	–	3.98	0.088 % ID/g	Boc-d-Leu-Ahxh-H [Example 120]	14.09%	–
–	–	8.7 % ID/g	4.9	–	–	–	–	H-d-Phe-Ambh-DTPA [Example 161]	7.75%	–
–	–	3.8 % ID/g	2.1	–	–	–	–	H-Aic-Ambh-DTPA [Example 207]	5.26%	–
–	–	4.3 % ID/g	2.1	–	–	–	–	H-d-Leu-XInph-DTPA [Example 201]	2.94%	–
–	–	5.7 % ID/g	2.9	–	–	–	–	Boc-cLeu-Ahxh-H [Example 133]	9.10%	–
–	–	5.1 % ID/g	2.0	2.21	0.065 % ID/g	1.67	0.080 % ID/g	H-d-Leu-Ahxh-DOTA [Example 155]	3.49%	–
–	–	–	–	–	–	1.31	0.092 % ID/g	H-d-Leu-Ahxh-Apa-DOTA [Example 215]	11.54%	–
–	–	17.2 % ID/g	5.0	–	–	2.92	0.096 % ID/g	Boc-d-Leu-Inph-H [Example 139]	18.36%	–
–	–	6.2 % ID/g	3.0	–	–	–	–	H-d-Aphe-Ahxh-DTPA [Example 193]	8.69%	–
–	–	6.5 % ID/g	0.9	–	–	–	–	H-Pro-Ahxh-DTPA [Example 163]	2.61%	–
–	–	10.8 % ID/g	9.6	–	–	–	–	H-d-Phe-Bbh-DTPA [Example 209]	20.9%	–
–	–	8.0 % ID/g	4.9	–	–	–	–	H-d-Cys(Bzl)-Ahxh-DTPA [Example 167]	9.74%	–
–	–	8.3 % ID/g	13.2	–	–	–	–	H-d-Hphe-Apph-DTPA [Example 180]	18.24%	–
